Where a name gives a salt, the structure may show the parent alone. Read-outs that look alike come from different tables or passages of the source.
Target: T1, lyophilized bovine thrombin standard substance purified from bovine blood (Bos taurus, UniProt P00735)
T1 construct: lyophilized bovine thrombin standard substance purified from bovine blood; from tissue; host or cells: bovine blood
Assay: Test for antithrombin activity (chromogenic substrate S2238)
Assay type: biochemical
Description: Wherein ΔAs represents the rate of change in inhibited absorbance value, and ΔAc represents the rate of change in uninhibited absorbance values.
Wherein h represents Hill coefficient.

[1] = 0.15 U/ml bovine thrombin, incubation for 15 minutes, substrate S2238 (0.075 μM), absorbance at 405 nm during 4 minutes, room temperature, read-out: IC50

Compound | IC50 [1] | IC50
N-benzylsulfonyl-D,L-leucyl-L-prolyl-{[4-(N′-hydroxyl) amidinophenyl]methyl}amide acetate [Example 4] | 47 nM | 
CC(C)C[C@@H](NS(=O)(=O)Cc1ccccc1)C(=O)N1CCC[C@H]1C(=O)NCc1ccc(C(=N)N)cc1 [Example 21, N-benzylsulfony-D-leucyl-L-prolyl-[(4-amidinophenyl)methyl]amide hydrochloride] |  | 170 nM
CC(C)C[C@@H](NCC(=O)O)C(=O)N1CCC[C@H]1C(=O)NCc1ccc(C(=N)N)cc1 [Example 24, N-carboxylmethyl-D-leucyl-L-prolyl-[(4-amidinophenyl)methyl]amide hydrochloride] | 561 nM | 
CC(C)C[C@@H](NS(=O)(=O)Cc1ccccc1)C(=O)N1CCC[C@H]1C(=O)NCc1ccc(C(=N)NC(=O)OCc2ccccc2)cc1 [Example 20] | 246 nM | 
CC(C)C[C@@H](NC(=O)c1ccccc1)C(=O)N1CCC[C@H]1C(=O)NCc1ccc(C(=N)N)cc1 [Example 22, N-benzoyl-D-leucyl-L-prolyl-[(4-amidinophenyl)methyl]amide hydrochloride] | 55 nM | 
CC(C)C[C@@H](NS(=O)(=O)c1ccccc1)C(=O)N1CCC[C@H]1C(=O)NCc1ccc(C(=N)NC(=O)OCc2ccccc2)cc1 [Example 18] | 30 nM | 
CC[C@H](C)[C@H](NC(=O)c1ccccc1)C(=O)N1CCC[C@H]1C(=O)NCc1ccc(C(=N)N)cc1 (mixture of isomers) [Example 12, N-benzoyl-D,L-isoleucyl-L-prolyl-[(4-amidinophenyl)methyl]amide acetate] | 561 nM | 
CC(C)CC(NC(=O)c1ccccc1)C(=O)N1CCC[C@H]1C(=O)NCc1ccc(C(=N)N)cc1 (mixture of isomers) [Example 6, N-benzoyl-D,L-leucyl-L-prolyl-[(4-amidinophenyl)methyl]amide acetate] | 154 nM | 
N-benzenesulfonyl-D-leucyl-L-prolyl-[1-(aminoiminomethyl)-pyrrol-3-yl]methyl amide hydrochloride [Example 27] | 8 nM | 
N=C(N)c1ccc(CNC(=O)[C@@H]2CCN2C(=O)[C@H](NCC(=O)O)C2CCCCC2)cc1 [melagatran, reference compound] |  | 69 nM
CC(C)C[C@@H](NC(=O)Cc1ccccc1)C(=O)N1CCC[C@H]1C(=O)NCc1ccc(C(=N)N)cc1 [Example 23, N-phenylacetyl-D-leucyl-L-prolyl-[(4-amidinophenyl)methyl]amide hydrochloride] | 472 nM | 
CC(C)C[C@@H](NS(=O)(=O)c1ccccc1)C(=O)N1CCC[C@H]1C(=O)NCc1ccc(C(=N)N)cc1 [Example 19, N-benzenesulfony-D-leucyl-L-prolyl-[(4-amidinophenyl)methyl]amide hydrochloride] | 12 nM | 
CC(C)CC(NS(=O)(=O)c1ccccc1)C(=O)N1CCC[C@H]1C(=O)NCc1ccc(C(=N)N)cc1 (stereo partly drawn) [Example 2, N-benzenesulfonyl-D,L-leucyl-L-prolyl-[(4-amidinophenyl)methyl]amide acetate] |  | 115 nM
